Source: patent US20140329863A1 (priority 2011, published 2014)
Like-named read-outs stand apart in the source and are kept apart here.

Experiments:
[1] = Hepatic microsomal stability, rat
[2] = Hepatic microsomal stability, human; details: for half-life at 1 μM: pH 7.4
[3] = […]
[4] = Hepatic microsome stability, human; format: in vitro ADME; details: human liver microsomes
Procedure: (§1) Hepatic microsomal stability assays were performed in two stages. In the first set of experiments, aliquots of the DMSO solute stocks were diluted into ACN and then into assay buffer (PBS, pH 7.4, ±0.05% PS80). Final experimental solute concentrations were 1 μM (0.6% ACN, 0.01% DMSO). Commercially available mouse, rat, or human hepatic microsomes (˜0.5 mg/ml final concentration), and NADPH (1 mM) or PBS were added. The resulting mixture was incubated at 37° C., and aliquots removed at 0, 1, 10, 30 and 60 min, then quenched with ACN containing 2 μM carbamazepine (internal standard). […] Duplicate incubations were run for each time-point. The percentage of solute remaining at the end of the incubation was used to determine solute half-life.
(§2) These were diluted 500-fold into 1 mL of microsomal incubation mixture to yield a final concentration of 1 μM. The incubation mixture was composed of 100 mM phosphate buffer, pH 7.4, and NADPH regenerating system (BD Biosciences NADPH Regenerating System Solutions A & B). This mixture was preincubated at 37° C. for 5 min in an Eppendorf Thermo mixer, and the reaction initiated by addition of 0.5 mg (25 μl of a 20 mg/mL solution) of liver microsomes. Aliquots (100 μl) were withdrawn at 0, 5, 15, 30, and 60 min, and added to 100 μl ACN containing internal standard. […] The percentage of solute remaining at the end of the incubation was used to determine species-specific values of scaled intrinsic clearance, hepatic clearance, and predicted hepatic extraction based upon the calculations below {Obach, 1999 #9097}.
(§3) for which mg microsomal protein/gm liver was 45 for all species, and gm liver/kg body weight were 32 for dog, 88 for mouse, 40 for rat and 25 for human.
(§4) Clh=(Q*Clint,scaled)/(Q+Clint,scaled)
(§5) for which Q was hepatic blood flow; values of 90 ml/min/kg for mouse, 66 ml/min/kg for rat, and 21 ml/min/kg for human were used.
(§6) for which ER estimates the amount of compound cleared during a single pass through the liver (Low ER<0.3, moderate ER 0.3-0.7, high ER>0.7).

[5] = Hepatic microsomal stability, mouse; details: for half-life at 1 μM: CD-1, mouse, pH 7.4
[6] = Multiple-dose (three-day) pharmacokinetic studies in FVB mice, drug in liquid diet; format: in vivo, mouse; details: FVB, mouse, oral, 3 days in liquid diet, 40, 80, 130, 210 mg/kg/day
Summary of the method: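 Cohorts of three wild-type FVB mice received compound from PEG400 stock in liquid diet with cocoa for three days at oral doses of 40-210 mg/kg, estimated from ~20 mL/day intake. Plasma and brain were collected at the end and measured by LC/MS/MS; […].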

[7] = Hepatic microsome stability, mouse; format: in vitro ADME; details: mouse liver microsomes
Procedure: as §1, §2, §3, §4, §5, §6

P-gp (MDR1) = test: in vitro; details: dog, MDCK-MDR1
in vitro = details: dog, MDCK-MDR1

c1ccc2cc(Nc3nc(-c4ccncc4)cs3)ncc2c1 [IND85, Isoquinolin-3-yl-(4-pyridin-4-yl-thiazol-2-yl)-amine]
half-life at 1 μM ([1]; Sprague-Dawley, rat, […], pH 7.4): 18 min | % remaining after a 60-min incubation, Rat ([1]; […], 60-min incubation): 32% | Hepatic Extraction Ratio Rat ([1]; rat): 0.8 | Hepatic Extraction Ratio Rat ([1]; rat microsomes): 0.8 | Hepatic Extraction Ratio Human ([2]; human): 0.7 | % remaining after a 60-min incubation, Human ([2]; human liver microsomes, 60-min incubation): 66% | Hepatic Extraction Ratio Human ([2]; human microsomes): 0.7 | half-life at 1 μM ([2]; human, human liver microsomes): 53 min | half-life at 1 μM ([2]; human, liver microsomes): 53 min | hepatic extraction ratio (ER) [3]: higher | hepatic extraction ratio (ER) [4]: higher | half-life at 1 μM ([5]; liver microsomes): 15 min | half-life at 1 μM ([5]; mouse liver microsomes): 15 min | Hepatic Extraction Ratio Mouse ([5]; mouse): 0.9 | % remaining after a 60-min incubation, Mouse ([5]; mouse liver microsomes, 60-min incubation): 6% | Hepatic Extraction Ratio Mouse ([5]; mouse microsomes): 0.9 | concentration at 3 days ([6]; brain, read-out: brain concentration): ≤ 1000 nM | concentration at 3 days ([6]; plasma, read-out: plasma concentration): ≤ 1000 nM | hepatic extraction ratio (ER) [7]: higher | efflux ratio (P-gp (MDR1)): 1.5 | Papp A→B (in vitro): 3.03 ×10⁻⁶ cm/s | Papp B→A (in vitro): 4.44 ×10⁻⁶ cm/s
